Assay results as given in patent US4443436A, “C-20-Modified macrolide derivatives of the macrolide antibiotics tylosin, desmycosin, macrocin, and lactenocin” (Eli Lilly and Company, priority 1982, dated 1984).
Values after ≈ are worked out from the molar mass of the structure shown. Where two headings read alike, the source gives them in different places.

Legend:
[1] = test system: Staphylococcus epidermidis EPI1; test: MIC, standard agar-dilution assay, Staphylococcus epidermidis EPI1; type: cell-based
Streptococcus Group 9960 = test: MIC, standard agar-dilution assay, Streptococcus Group 9960; type: cell-based; settings: Streptococcus Group 9960, agar dilution
[2] = test system: Staphylococcus aureus S13E; test: MIC, standard agar-dilution assay, Staphylococcus aureus S13E; type: cell-based
[3] = test system: Staphylococcus epidermidis EPI2; test: MIC, standard agar-dilution assay, Staphylococcus epidermidis EPI2; type: cell-based; settings: Staphylococcus epidermidis EPI2, agar dilution
[4] = test system: Staphylococcus aureus V41; test: MIC, standard agar-dilution assay, Staphylococcus aureus V41; type: cell-based
[5] = test system: Haemophilus influenzae R252; test: MIC, standard agar-dilution assay, Haemophilus influenzae R252; type: cell-based; settings: Haemophilus influenzae R252, ampicillin-resistant strain
[6] = test system: Staphylococcus aureus X1.1; test: MIC, standard agar-dilution assay, Staphylococcus aureus X1.1; type: cell-based
[7] = test system: Streptococcus Group D X66; test: MIC, standard agar-dilution assay, Streptococcus Group D X66; type: cell-based; settings: Streptococcus Group D X66, agar dilution
[8] = test system: Streptococcus pyogenes C203; test: MIC, standard agar-dilution assay, Streptococcus pyogenes C203; type: cell-based
[9] = test system: Staphylococcus aureus X400; test: MIC, standard agar-dilution assay, Staphylococcus aureus X400; type: cell-based
[10] = test system: Streptococcus pneumoniae Park I; test: microbe, parasite or virus in culture; type: cell-based
[11] = test system: Haemophilus influenzae Holt; test: MIC, standard agar-dilution assay, Haemophilus influenzae Holt; type: cell-based; settings: Haemophilus influenzae Holt, ampicillin-sensitive strain
Mycoplasma gallisepticum = test: MIC, broth-dilution microtiter test, Mycoplasma gallisepticum; type: cell-based
Excerpt: (§1) The MIC's in Table X were obtained using conventional broth-dilution microtiter tests.

Streptococcus bovis 80 = test: MIC, broth-dilution microtiter test, Streptococcus bovis 80; type: cell-based; settings: Streptococcus bovis 80, broth-dilution microtiter
Excerpt: as §1

Staphylococcus aureus = test: MIC, broth-dilution microtiter test, Staphylococcus aureus; type: cell-based; settings: broth-dilution microtiter
Excerpt: as §1

[12] = test system: Pasteurella multocida 60A; test: MIC, broth-dilution microtiter test, Pasteurella multocida 60A; type: cell-based; settings: Pasteurella multocida 60A, avian isolate, broth-dilution microtiter
Excerpt: as §1

Mycoplasma hyorhinis = test: MIC, broth-dilution microtiter test, Mycoplasma hyorhinis; type: cell-based
Excerpt: as §1

[13] = test system: Pasteurella hemolytica 22C; test: MIC, broth-dilution microtiter test, Pasteurella hemolytica 22C; type: cell-based; settings: Pasteurella hemolytica 22C, broth-dilution microtiter
Excerpt: as §1

[14] = test system: Streptococcus pyogenes C203; test: In vivo protection of mice experimentally infected with S. pyogenes C203; settings: mice, doses given 1 and 4 hours post-infection; for ED50: Streptococcus pyogenes
Procedure: The C-20 modified derivatives of this invention have shown in vivo antimicrobial activity against experimentally-induced infections in laboratory animals. When two doses of test compound were administered to mice experimentally infected with S. pyogenes C203, the activity observed was measured as an ED50 value [effective dose in mg/kg to protect 50% of the test animals: see Warren Wick, et al., J. Bacteriol. 81, 233-235 (1961)].

[15] = test system: Pasteurella multocida 17E; test: MIC, broth-dilution microtiter test, Pasteurella multocida 17E; type: cell-based; settings: Pasteurella multocida 17E, bovine isolate, broth-dilution microtiter
Excerpt: as §1

[16] = Staphylococcus epidermidis EPI1, agar dilution
[17] = Staphylococcus aureus S13E, agar dilution
[18] = Staphylococcus aureus V41, penicillin-resistant strain, agar dilution
[19] = Staphylococcus aureus X1.1, agar dilution
[20] = Staphylococcus aureus X400, methicillin-resistant strain, agar dilution
[21] = Streptococcus pneumoniae Park I, agar dilution
[22] = Staphylococcus epidermidis, EPI1

Row | SMILES | MIC [1, 16] | MIC (Streptococcus Group 9960) | MIC [2, 17] | MIC [3] | MIC [4, 18] | MIC ([5]; agar dilution) | MIC [6, 19] | MIC [7] | MIC [9, 20] | MIC [10, 21] | MIC ([11]; agar dilution) | MIC [1, 22] | MIC (Streptococcus Group 9960; GROUP9960, read-out: MIC) | MIC ([2]; Staphylococcus aureus, S13E) | MIC ([4]; Staphylococcus aureus, V41) | MIC ([6]; Staphylococcus aureus, X1.1) | MIC ([7]; read-out: MIC) | further results
1 | CCC1OC(=O)CC(O)C(C)C(OC2OC(C)C(O)C(N(C)C)C2O)C(CCNC(=O)COc2ccccc2)CC(C)C(=O)C=CC(C)=CC1COC1OC(C)C(O)C(OC)C1OC (stereo not drawn) [Compound 51c, 20-DH-DO-20-(N-phenoxyacetyl)aminodesmycosin] | 0.25 µg/mL (≈ 0.276 µM) | 1 µg/mL (≈ 1.1 µM) | 0.25 µg/mL (≈ 0.276 µM) | 0.12 µg/mL (≈ 0.132 µM) | 0.25 µg/mL (≈ 0.276 µM) | 8 µg/mL (≈ 8.82 µM) | 0.25 µg/mL (≈ 0.276 µM) | 1 µg/mL (≈ 1.1 µM) | 0.5 µg/mL (≈ 0.551 µM) | 0.25 µg/mL (≈ 0.276 µM) | 8 µg/mL (≈ 8.82 µM) |  |  |  |  |  |  | MIC ([8]; Streptococcus pyogenes C203, agar dilution): 0.25 µg/mL (≈ 0.276 µM)
2 | CCC1OC(=O)CC(O)C(C)C(OC2OC(C)C(O)C(N(C)C)C2O)C(CCOCCc2ccccc2)CC(C)C(=O)C=CC(C)=CC1COC1OC(C)C(O)C(OC)C1OC (stereo not drawn) [Compound 31, 20-DH-20-O-(Phenethyl)desmycosin] |  |  |  |  |  |  |  |  |  |  |  | 0.25 µg/mL (≈ 0.285 µM) | 16 µg/mL (≈ 18.2 µM) | 0.25 µg/mL (≈ 0.285 µM) | 0.25 µg/mL (≈ 0.285 µM) | 0.25 µg/mL (≈ 0.285 µM) | 8 µg/mL (≈ 9.11 µM) | MIC ([3]; read-out: MIC): 0.12 µg/mL (≈ 0.137 µM); MIC ([8]; Streptococcus pyogenes, C203): 1 µg/mL (≈ 1.14 µM); MIC ([9]; Staphylococcus aureus, X400): 0.5 µg/mL (≈ 0.569 µM); MIC ([10]; Streptococcus pneumoniae): 0.25 µg/mL (≈ 0.285 µM)
3 | CCC1OC(=O)CC(O)C(C)C(OC2OC(C)C(OC3CC(C)(O)C(O)C(C)O3)C(N(C)C)C2O)C(CCOc2ccccc2)CC(C)C(=O)C=CC(C)=CC1COC1OC(C)C(O)C(OC)C1OC (stereo not drawn) [Compound 4, 20-DH-20-O-Phenyltylosin] |  |  |  |  |  |  |  |  |  |  |  | 1 µg/mL (≈ 1.01 µM) | 128 µg/mL (≈ 129 µM) | 1 µg/mL (≈ 1.01 µM) | 1 µg/mL (≈ 1.01 µM) | 1 µg/mL (≈ 1.01 µM) | 128 µg/mL (≈ 129 µM) | MIC (Mycoplasma gallisepticum; Mycoplasmoides gallisepticum): 1.56 µg/mL (≈ 1.57 µM); MIC (Streptococcus bovis 80; Streptococcus equinus, read-out: MIC): 12.5 µg/mL (≈ 12.6 µM); MIC (Staphylococcus aureus; read-out: MIC): 3.12 µg/mL (≈ 3.14 µM); MIC ([5]; read-out: MIC): > 128 µg/mL; MIC ([12]; read-out: MIC): > 50 µg/mL; MIC (Mycoplasma hyorhinis; Mycoplasma): 50 µg/mL (≈ 50.3 µM); MIC ([13]; read-out: MIC): > 50 µg/mL; MIC ([8]; Streptococcus pyogenes C203, agar dilution, read-out: MIC): 2 µg/mL (≈ 2.01 µM); MIC ([9]; Staphylococcus aureus X400, methicillin-resistant strain, agar dilution, read-out: MIC): 2 µg/mL (≈ 2.01 µM); ED50 ([14]; C203, sc, subcutaneous, read-out: ED50, Subcutaneous): > 6.3 mg/kg; ED50 ([14]; C203, oral, read-out: ED50, Oral): 35 mg/kg; MIC ([15]; read-out: MIC): > 50 µg/mL; MIC ([11]; read-out: MIC): > 128 µg/mL
4 | CCC(=O)OC1C(OC2C(CCN3C(=O)c4ccccc4C3=O)CC(C)C(=O)C=CC(C)=CC(COC3OC(C)C(O)C(OC)C3OC)C(CC)OC(=O)CC(O)C2C)OC(C)C(OC2CC(C)(O)C(O)C(C)O2)C1N(C)C (stereo not drawn) [Compound 62, 20-DH-DO-20-N-Phthalimido-2'-O-propionyltylosin] | 1 µg/mL (≈ 0.906 µM) | -- (Not active at 128 mcg/ml, the highest level tested) | 1 µg/mL (≈ 0.906 µM) | 1 µg/mL (≈ 0.906 µM) | 1 µg/mL (≈ 0.906 µM) | -- (Not active at 128 mcg/ml, the highest level tested) | 1 µg/mL (≈ 0.906 µM) | -- (Not active at 128 mcg/ml, the highest level tested) | 2 µg/mL (≈ 1.81 µM) | 2 µg/mL (≈ 1.81 µM) | -- (Not active at 128 mcg/ml, the highest level tested) |  |  |  |  |  |  | MIC (Mycoplasma gallisepticum; Mycoplasma gallisepticum, broth-dilution microtiter): 1.56 µg/mL (≈ 1.41 µM); MIC (Streptococcus bovis 80): 12.5 µg/mL (≈ 11.3 µM); MIC (Staphylococcus aureus): 3.12 µg/mL (≈ 2.83 µM); MIC [12]: -- (Not active at 50 mcg/ml, the highest level tested); MIC (Mycoplasma hyorhinis; Mycoplasma hyorhinis, broth-dilution microtiter): 50 µg/mL (≈ 45.3 µM); MIC [13]: -- (Not active at 50 mcg/ml, the highest level tested); ED50, Oral ([14]; oral): 66 mg/kg × 2; ED50, Subcutaneous ([14]; subcutaneous): > 6.3 mg/kg × 2; MIC [15]: -- (Not active at 50 mcg/ml, the highest level tested)
5 | CC(=O)O.CC(=O)O.CCC1OC(=O)CC(O)C(C)C(OC2OC(C)C(O)C(N(C)C)C2O)C(CCN)CC(C)C(=O)C=CC(C)=CC1COC1OC(C)C(O)C(OC)C1OC (stereo not drawn) [Compound 51b, 20-DH-DO-20-Aminodesmycosin diacetate] | 8 µg/mL | 128 µg/mL | 4 µg/mL | 2 µg/mL | 4 µg/mL | -- (Not active at 128 mcg/ml, the highest level tested) | 4 µg/mL | 128 µg/mL | 8 µg/mL | 16 µg/mL | 128 µg/mL |  |  |  |  |  |  | 
